Data: US5633233A, “Modified kojibiosides analogues” (priority 1995, dated 1997)
Read-outs that look alike come from different tables or passages of the source. Each block holds one compound with its values, some of them ahead of it.

Columns and labels:
[1] = tested on: α-glucosidase I from mung bean seedlings; conditions: cited from earlier work
[2] = tested on: α-glucosidase I from bovine mammary gland; conditions: cited from earlier work
[3] = tested on: α-glucosidase I from yeast microsomal preparation; conditions: cited from earlier work
[4] = tested on: α-glucosidase I from rat liver microsomes; conditions: cited from earlier work
[5] = tested on: α-glucosidase; conditions: cited from earlier work
[6] = target: T1, glucosidase I (Bos taurus, UniProt A0A3Q1M9D9); test: Assay for glucosidase I activity (14C-Glc3Man9GlcNAc2 substrate, ConA-Sepharose, scintillation counting); assay type: biochemical, calf; conditions: 1 mM concentration
T1 construct: Glucosidase I was solubilized from calf pancreas microsomes; from tissue; host or cells: calf pancreas microsomes
T1 sequence (A0A3Q1M9D9 1-839): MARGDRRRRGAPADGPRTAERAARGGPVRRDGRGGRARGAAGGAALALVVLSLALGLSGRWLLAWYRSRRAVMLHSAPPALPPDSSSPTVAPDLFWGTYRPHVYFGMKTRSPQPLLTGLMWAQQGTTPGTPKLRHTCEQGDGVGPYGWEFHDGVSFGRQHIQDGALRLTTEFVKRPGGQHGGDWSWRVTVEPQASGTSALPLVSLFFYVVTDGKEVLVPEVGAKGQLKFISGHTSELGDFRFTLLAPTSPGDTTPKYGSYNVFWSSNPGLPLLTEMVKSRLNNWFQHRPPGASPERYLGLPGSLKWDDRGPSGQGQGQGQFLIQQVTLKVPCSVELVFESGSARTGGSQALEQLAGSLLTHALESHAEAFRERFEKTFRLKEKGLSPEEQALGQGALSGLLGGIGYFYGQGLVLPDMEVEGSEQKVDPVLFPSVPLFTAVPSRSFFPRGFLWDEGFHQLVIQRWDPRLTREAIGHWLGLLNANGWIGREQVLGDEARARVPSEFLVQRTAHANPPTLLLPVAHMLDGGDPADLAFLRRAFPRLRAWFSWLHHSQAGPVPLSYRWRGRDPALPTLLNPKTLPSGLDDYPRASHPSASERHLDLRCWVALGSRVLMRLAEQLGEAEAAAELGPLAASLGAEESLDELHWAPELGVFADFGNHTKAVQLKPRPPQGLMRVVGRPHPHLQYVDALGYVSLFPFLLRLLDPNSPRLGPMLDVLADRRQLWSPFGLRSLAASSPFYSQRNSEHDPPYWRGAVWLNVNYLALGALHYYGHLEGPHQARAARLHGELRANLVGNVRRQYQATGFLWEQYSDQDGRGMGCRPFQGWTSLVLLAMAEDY
Method: Some of the compounds described herein were evaluated as inhibitors of glucosidase I activity. Glucosidase I was purified by a literature procedure as follows. To prepare an affinity matrix, carboxypentyl-deoxynojirimycin was coupled with Affigel 102 according to Shailubhai et al^51. Glucosidase I was solubilized from calf pancreas microsomes, and purified from glucosidase II activity by affinity chromatography according to the same authors.
Substrates for Assay of Glucosidase I ^14 C-labelled Glc3 Man9 GlcNAc2 -PP-Dol was prepared by the incubation of UDP-[^14 C]Glc with calf pancreas microsomes as described by Herscovien et al^52. Glc3 Man9 GlcNAc2 was released by mild acid hydrolysis and purified by BioGel P4 chromatography.
Assay for Glucosidase I Activity
Affinity purified glucosidase I was assayed as described by Saunier et al.^53 by adsorption of undigested substrate […] to ConA-Sepharose and scintillation counting of [^14 C]Glc in the column eluent. Oligosaccharides as potential inhibitors were evaluated using castanospermine as a baseline inhibitor.

[7] = affinity purified glucosidase I from calf pancreas microsomes, read-out: inhibition of glucosidase I activity

SMILES: OC[C@H]1O[C@H](O[C@H]2C(O)O[C@H](CO)[C@@H](O)[C@@H]2O)[C@H](O)[C@@H](O)[C@@H]1O (stereo partly drawn) [Kojibiose]
inhibition of α-glucosidase I [1]: inhibited | inhibition of α-glucosidase I [2]: inhibited | inhibition of α-glucosidase I [3]: inhibited | inhibition of α-glucosidase I [4]: inhibited

SMILES: C[C@H]1O[C@H](O[C@H]2[C@H](O)[C@@H](O)[C@@H](O[C@H]3[C@H](O)[C@@H](O)C(O)O[C@@H]3CO)O[C@@H]2CO)[C@H](O)[C@@H](O)[C@@H]1N[C@H]1C=C(CO)[C@@H](O)[C@H](O)[C@H]1O (stereo partly drawn) [acarbose]
α-glucosidase inhibition [5]: potent

inhibition at 1000 µM [6, 7]: 20%
SMILES: COC(=O)CCCCCCCCO[C@H]1O[C@H](CO)[C@@H](O)[C@H](O)[C@H]1O[C@H]1O[C@H](CO)[C@@H](O)[C@H](O)[C@H]1O [compound 44, 8-Methoxycarbonyloctyl 2-O-(α-D-glucopyranosyl)-α-D-glucopyranoside]

inhibition at 1000 µM ([6]; versus known compound 44, read-out: increase in inhibition activity relative to compound 44): 70% | inhibition at 1000 µM [6, 7]: 34%
SMILES: COC(=O)CCCCCCCCO[C@H]1O[C@H](CN)[C@@H](O)[C@H](O)[C@H]1O[C@H]1O[C@H](CO)[C@@H](O)[C@H](O)[C@H]1O [compound 57, 8-Methoxycarbonyloctyl 6-amino-6-deoxy-2-O-(α-D-glucopyranosyl)-α-D-glucopyranoside]

SMILES: C[C@H]1O[C@H](O[C@H]2[C@H](O)[C@@H](O)[C@@H](O[C@H]3[C@H](O)[C@@H](O)[C@@H](O)O[C@@H]3CO)O[C@@H]2CO)[C@H](O)[C@@H](O)[C@@H]1N[C@H]1C[C@H](CO)[C@@H](O)[C@H](O)[C@H]1O [dihydroacarbose]
α-glucosidase inhibition [5]: potent
